# Tests used:
# [1] = biological target: human phosphoinositide-3 kinase (PI3K) delta (Homo sapiens (Human), UniProt O00329); assay: PI3K-mediated Akt 1/2 (S473) phosphorylation in Rat-1 cells overexpressing PI3K delta; type: cell-based; settings: cellular assay, p-AKT(Ser473), read-out: Cell PI3K delta IC50
# Protocol: 2.1 Phosphoinositide-3 kinase (PI3K)-Mediated Akt 1/2 (S473) Phosphorylation in Rat-1 Cells
# Rat-1 cells stably overexpressing a myristoylated form of the catalytic subunit of human phosphoinositide-3 kinase (PI3K) alpha, beta or delta were plated in 384-well plates at a density of 7500 (PI3K alpha), 6200 (PI3K beta), or 4000 (PI3K delta) cells in 30 ul complete growth medium (Dulbecco's modified Eagle's medium (DMEM high glucose) supplemented with 10% (v/v) fetal bovine serum, 1% (v/v) MEM non essential amino acids, 10 mM HEPES, 2 mM L-glutamine, 10 μg/mL puromycin and 1% (v/v) Penicillin/Streptomycin) and were incubated at […]/5% CO2/95% humidity for 24 h. Compounds were diluted in 384-well compound plates (compound master plates), to obtain 8-point serial dilutions for 40 test compounds in 90% DMSO, as well as 4 reference compounds plus 16 high controls and 16 low (inhibited) controls. Predilution plates were prepared by dispensing pipetting 250 nl of compound solutions into 384-well polypropylen plates (daugther plates), using a Hummingwell nanoliter dispenser. Compounds were prediluted by the addition of 49.75 ul complete growth medium. 10 ul of prediluted compound solution were transferred to the cell plate using a 384-well pipettor, resulting in a final DMSO concentration of 0.11%. Cells were incubated for 1 h at […]/5% CO2/95% humidity. The supernatant was removed, the cells were lysed in 20 ul of lysis buffer for AlphaScreen® SureFire® detection.
# For detection of p-AKT(Ser473), the SureFire® p-Akt 1/2 (Ser473) Assay Kit (PerkinElmer, U.S.A.) was used. 5 ul of cell lysate was transferred to 384-well low volume Proxiplates for detection using a 384-well pipettor. Addition of AlphaScreen® SureFire® reagents was done according to the manufacturer's protocol. First, 5 ul of reaction buffer plus activation buffer mix containing AlphaScreen® acceptor beads was added, the plate was sealed, and incubated on a plate shaker for 2 hours at room temperature. Second, 2 ul of dilution buffer containing AlphaScreen® donor beads was added, and the plate was incubated on plate shaker as above for a further 2 hours. The plate was read on an AlphaScreen® compatible plate reader, using standard AlphaScreen® settings. Alternatively, p-AKT(Ser473) was detected with the CisBio HTRF Assay Kit: As positive control, 0.9 mM of 1-(3-(trifluoromethyl)-4-(piperazin-1-yl)phenyl)-8-(6-methoxypyridin-3-yl)-3-methyl-1H-imidazo[4,5-c]quinolin-2(3H)-one maleic acid salt in 90% (v/v) DMSO was added to the compound master plate. For compound testing, the cells were seeded at a density of 4000 (Rat-1_PI3Kdelta), 8000 (Rat-1_PI3Kalpha), or 6500 (Rat-1_PI3Kbeta) cells in 30 ul complete growth medium into 384-well plates, with a plastic surface promoting the adhesion of cells and their growth (assay plates) and were grown at 37° C./5% CO2/90% humidity for 24 h. Some 10 ul of the compound predilutions from the daughter plate were then transferred to the cells. After treatment with compound for 1 h, medium was removed and cells were lysed by the addition of 20 ul lysis buffer supplemented with blocking buffer. Detection of p-AKT(Ser473) was performed with the HTRF pAKT (Ser473) assay kit according to the manufacturer's instructions using 16 ul of cell lysate in a total detection volume of 20 ul.
# PI3K alpha = PI3K alpha (Homo sapiens (Human), UniProt P42336); assay: Biochemical assay for PI3Kalpha (Kinase-Glo format); settings: enzymatic assay
# PI3K alpha, sequence (P42336 21-1068): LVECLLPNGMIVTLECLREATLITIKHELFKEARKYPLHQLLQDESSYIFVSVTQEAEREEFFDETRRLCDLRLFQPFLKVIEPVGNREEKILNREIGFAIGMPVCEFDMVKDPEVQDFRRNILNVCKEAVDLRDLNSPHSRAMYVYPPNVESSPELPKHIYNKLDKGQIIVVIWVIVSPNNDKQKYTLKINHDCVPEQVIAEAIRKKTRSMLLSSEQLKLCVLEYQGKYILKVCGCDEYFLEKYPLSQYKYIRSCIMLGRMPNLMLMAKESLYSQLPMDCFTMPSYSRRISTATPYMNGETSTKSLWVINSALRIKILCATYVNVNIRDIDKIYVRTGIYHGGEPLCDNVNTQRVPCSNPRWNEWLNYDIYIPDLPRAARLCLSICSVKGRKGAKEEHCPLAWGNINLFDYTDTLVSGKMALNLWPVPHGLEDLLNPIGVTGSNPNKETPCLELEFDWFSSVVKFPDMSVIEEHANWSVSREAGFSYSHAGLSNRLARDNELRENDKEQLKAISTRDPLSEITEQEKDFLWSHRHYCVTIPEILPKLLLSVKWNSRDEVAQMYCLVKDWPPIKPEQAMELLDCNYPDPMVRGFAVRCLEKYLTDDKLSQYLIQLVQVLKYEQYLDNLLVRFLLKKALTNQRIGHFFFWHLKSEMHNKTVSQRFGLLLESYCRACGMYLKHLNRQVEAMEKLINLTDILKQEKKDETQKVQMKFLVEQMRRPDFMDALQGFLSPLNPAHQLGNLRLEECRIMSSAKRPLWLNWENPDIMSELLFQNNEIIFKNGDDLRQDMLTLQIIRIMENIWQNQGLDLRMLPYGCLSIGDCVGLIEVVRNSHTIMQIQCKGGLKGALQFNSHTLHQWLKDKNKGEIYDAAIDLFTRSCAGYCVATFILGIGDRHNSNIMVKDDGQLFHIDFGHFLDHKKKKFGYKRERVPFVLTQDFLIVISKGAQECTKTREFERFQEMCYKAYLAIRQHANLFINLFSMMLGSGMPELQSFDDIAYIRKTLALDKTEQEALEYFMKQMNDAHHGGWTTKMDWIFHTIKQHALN
# PI3K alpha, sequence (P27986 461-568 partner): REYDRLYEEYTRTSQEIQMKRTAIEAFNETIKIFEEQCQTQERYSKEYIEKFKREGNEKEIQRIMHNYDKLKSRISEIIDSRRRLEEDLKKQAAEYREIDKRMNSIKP
# Protocol: 1.1 Generation of Gene Constructs, Protein Expression and Purification
# For the enzymatic assays, the preparation of PI3K gene constructs, protein expression and purification for HTS are described in WO2012/004299.
# 1.2 Biochemical Assays for PI3Kalpha, PI3Kbeta (Kinase-Glo Format)
# The kinase reaction is performed in a final volume of 50 μl per well of a half area COSTAR, 96 well plate. The final concentrations of ATP and phosphatidyl inositol in the assay are 5 μM and 6 μg/mL, respectively. The reaction is started by the addition of PI3 kinase, e.g. PI3 kinase α.
# The components of the assay are added per well as follows: • 10 μl test compound in 5% DMSO per well in […]. • Total activity is determined by addition 10 μl of 5% vol/vol DMSO in the first 4 wells of column 1 and the last 4 wells of column 12. • The background is determined by addition of 10 μM control compound to the last 4 wells of column 1 and the first 4 wells of column 12. • 2 mL ‘Assay mix’ are prepared per plate: • 1.912 mL of HEPES assay buffer • 8.33 μl of 3 mM stock of ATP giving a final concentration of 5 μM per well • 1 μl of [^33P]ATP on the activity date giving 0.05 μCi per well • 30 μl of 1 mg/mL PI stock giving a final concentration of 6 μg/mL per well • 5 μl of 1 M stock MgCl2 giving a final concentration of 1 mM per well • 20 μl of the assay mix are added per well. • 2 mL ‘Enzyme mix’ are prepared per plate (x* μl PI3 kinase p110α in 2 mL of kinase buffer). The ‘Enzyme mix’ is kept on ice during addition to the assay plates. * The volume of enzyme is dependent on the enzymatic activity of the batch in use. • 20 μl ‘Enzyme mix’ are added/well to start the reaction. • The plate is then incubated at room temperature for 90 minutes. • The reaction is terminated by the addition of 50 μl WGA-SPA bead (wheat germ agglutinin-coated Scintillation Proximity Assay beads) suspension per well. • The assay plate is sealed using TopSeal-S (heat seal for polystyrene microplates, PerkinElmer LAS [Deutschland] GmbH, Rodgau, Germany) and incubated at room temperature for at least 60 minutes. • The assay plate is then centrifuged at 1500 rpm for 2 minutes using the Jouan bench top centrifuge (Jouan Inc., Nantes, France). • The assay plate is counted using a Packard TopCount, each well being counted for 20 seconds.
# In a more preferred assay, the kinase reaction is performed in a final volume of 10 μl per well of a low volume non-binding CORNING, 384 well black plate (Cat. No. #3676). The final concentrations of ATP and phosphatidyl inositol (PI) in the assay are 1 μM and 10 μg/mL, respectively. The reaction is started by the addition of ATP.
# The components of the assay are added per well as follows: […]
# human phosphoinositide-3 kinase (PI3K) delta, sequence (O00329 whole entry): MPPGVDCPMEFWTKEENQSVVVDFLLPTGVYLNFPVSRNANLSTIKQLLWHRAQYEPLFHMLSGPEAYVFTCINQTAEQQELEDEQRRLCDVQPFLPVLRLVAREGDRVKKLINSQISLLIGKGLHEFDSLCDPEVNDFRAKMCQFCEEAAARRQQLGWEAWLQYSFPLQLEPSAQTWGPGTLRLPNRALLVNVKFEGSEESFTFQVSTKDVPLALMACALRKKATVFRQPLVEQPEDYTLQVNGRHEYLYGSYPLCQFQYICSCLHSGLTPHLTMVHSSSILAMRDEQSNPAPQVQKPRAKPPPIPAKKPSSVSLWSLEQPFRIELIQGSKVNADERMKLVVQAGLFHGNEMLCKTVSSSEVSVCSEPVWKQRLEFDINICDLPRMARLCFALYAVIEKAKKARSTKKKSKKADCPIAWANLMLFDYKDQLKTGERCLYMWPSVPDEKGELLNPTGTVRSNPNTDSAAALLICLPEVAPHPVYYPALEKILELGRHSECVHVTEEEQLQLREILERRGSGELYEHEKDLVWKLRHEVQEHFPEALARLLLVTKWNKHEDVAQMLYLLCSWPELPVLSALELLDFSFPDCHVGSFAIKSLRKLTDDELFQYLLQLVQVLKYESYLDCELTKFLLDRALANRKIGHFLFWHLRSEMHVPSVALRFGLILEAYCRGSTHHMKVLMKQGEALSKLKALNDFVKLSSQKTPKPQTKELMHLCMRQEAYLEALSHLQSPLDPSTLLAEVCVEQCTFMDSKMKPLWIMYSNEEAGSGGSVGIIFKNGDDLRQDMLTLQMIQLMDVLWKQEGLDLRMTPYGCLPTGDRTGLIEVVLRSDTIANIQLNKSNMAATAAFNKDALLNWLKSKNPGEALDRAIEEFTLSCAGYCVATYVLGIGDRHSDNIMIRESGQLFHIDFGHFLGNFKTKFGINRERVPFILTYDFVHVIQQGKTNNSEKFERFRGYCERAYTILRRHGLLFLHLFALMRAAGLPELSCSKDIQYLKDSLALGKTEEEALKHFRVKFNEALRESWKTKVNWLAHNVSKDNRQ
# human phosphoinositide-3 kinase (PI3K) delta, sequence (Q63787 whole entry partner): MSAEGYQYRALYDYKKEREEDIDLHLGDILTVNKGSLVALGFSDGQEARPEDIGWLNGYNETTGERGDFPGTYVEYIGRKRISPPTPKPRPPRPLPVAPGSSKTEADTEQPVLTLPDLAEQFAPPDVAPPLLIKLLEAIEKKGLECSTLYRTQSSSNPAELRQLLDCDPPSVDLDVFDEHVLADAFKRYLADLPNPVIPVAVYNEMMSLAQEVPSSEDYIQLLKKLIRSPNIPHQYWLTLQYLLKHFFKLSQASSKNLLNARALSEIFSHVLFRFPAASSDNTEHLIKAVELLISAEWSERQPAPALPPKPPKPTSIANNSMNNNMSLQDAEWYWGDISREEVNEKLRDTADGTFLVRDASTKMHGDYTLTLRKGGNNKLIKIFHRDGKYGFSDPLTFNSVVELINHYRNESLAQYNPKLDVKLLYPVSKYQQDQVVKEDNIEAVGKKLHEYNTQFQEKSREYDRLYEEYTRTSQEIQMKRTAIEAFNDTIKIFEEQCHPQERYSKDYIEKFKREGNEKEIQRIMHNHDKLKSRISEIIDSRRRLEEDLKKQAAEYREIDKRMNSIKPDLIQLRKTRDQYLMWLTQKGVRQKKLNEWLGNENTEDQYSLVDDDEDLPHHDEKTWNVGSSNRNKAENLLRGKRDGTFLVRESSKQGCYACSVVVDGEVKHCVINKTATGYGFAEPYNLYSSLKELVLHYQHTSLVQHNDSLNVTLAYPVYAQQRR
structure (smiles),measurement,setting,value
"Cn1cnc(-c2cccc3nc([C@@H]4CCCN4c4ncnc(N)c4C#N)n(-c4ccccc4)c(=O)c23)c1 [Example 15, (S)-4-Amino-6-(2-(5-(1-methyl-1H-imidazol-4-yl)-4-oxo-3-phenyl-3,4-dihydroquinazolin-2-yl)pyrrolidin-1-yl)pyrimidine-5-carbonitrile]",IC50,[1],5400 nM
same,IC50,PI3K alpha,> 10000 nM
"Cc1nc(N)nc(N2C[C@@H](O)C[C@H]2c2nc3cccc(-c4cnn(C)c4)c3c(=O)n2-c2ccccc2)c1C#N [Example 16, 2-Amino-4-((2S,4S)-4-hydroxy-2-(5-(1-methyl-1H-pyrazol-4-yl)-4-oxo-3-phenyl-3,4-dihydroquinazolin-2-yl)pyrrolidin-1-yl)-6-methylpyrimidine-5-carbonitrile]",IC50,[1],8 nM
same,IC50,PI3K alpha,180 nM
"Cc1nc(N)nc(N2CCC[C@H]2c2nc3cccc(-c4cncnc4)c3c(=O)n2-c2ccccc2)c1C#N [Example 17, (S)-2-Amino-4-methyl-6-(2-(4-oxo-3-phenyl-5-(pyrimidin-5-yl)-3,4-dihydroquinazolin-2-yl)pyrrolidin-1-yl)pyrimidine-5-carbonitrile]",IC50,[1],< 3 nM
same,IC50,PI3K alpha,1200 nM
"COc1cncc(-c2cccc3nc([C@@H]4CCCN4c4nc(N)nc(C)c4C#N)n(-c4ccccc4)c(=O)c23)c1 [Example 18, (S)-2-Amino-4-(2-(5-(5-methoxypyridin-3-yl)-4-oxo-3-phenyl-3,4-dihydroquinazolin-2-yl)pyrrolidin-1-yl)-6-methylpyrimidine-5-carbonitrile]",IC50,[1],< 3 nM
same,IC50,PI3K alpha,56 nM
"Cc1ncc(-c2cccc3nc([C@@H]4CCCN4c4nc(N)nc(C)c4C#N)n(-c4ccccc4)c(=O)c23)cn1 [Example 19, (S)-2-Amino-4-methyl-6-(2-(5-(2-methylpyrimidin-5-yl)-4-oxo-3-phenyl-3,4-dihydroquinazolin-2-yl)pyrrolidin-1-yl)pyrimidine-5-carbonitrile]",IC50,[1],< 3 nM
same,IC50,PI3K alpha,820 nM
"Cc1nc(N)nc(N2CCC[C@H]2c2nc3cccc(-c4cccnc4)c3c(=O)n2-c2ccccc2)c1C#N [Example 20, (S)-2-Amino-4-methyl-6-(2-(4-oxo-3-phenyl-5-(pyridin-3-yl)-3,4-dihydroquinazolin-2-yl)pyrrolidin-1-yl)pyrimidine-5-carbonitrile]",IC50,[1],< 3 nM
same,IC50,PI3K alpha,260 nM
"COc1ccc(-c2cccc3nc([C@@H]4CCCN4c4nc(N)nc(C)c4C#N)n(-c4ccccc4)c(=O)c23)cn1 [Example 21, (S)-2-Amino-4-(2-(5-(6-methoxypyridin-3-yl)-4-oxo-3-phenyl-3,4-dihydroquinazolin-2-yl)pyrrolidin-1-yl)-6-methylpyrimidine-5-carbonitrile]",IC50,[1],13 nM
same,IC50,PI3K alpha,260 nM
"COc1ncc(-c2cccc3nc([C@@H]4C[C@H](O)CN4c4nc(N)nc(C)c4C#N)n(-c4ccccc4)c(=O)c23)cn1 [Example 22, 2-Amino-4-((2S,4S)-4-hydroxy-2-(5-(2-methoxypyrimidin-5-yl)-4-oxo-3-phenyl-3,4-dihydroquinazolin-2-yl)pyrrolidin-1-yl)-6-methylpyrimidine-5-carbonitrile]",IC50,[1],7 nM
same,IC50,PI3K alpha,580 nM
"Cc1nc(N)nc(N2C[C@@H](O)C[C@H]2c2nc3cccc(-c4cccnc4)c3c(=O)n2-c2ccccc2)c1C#N [Example 24, 2-Amino-4-((2S,4S)-4-hydroxy-2-(4-oxo-3-phenyl-5-(pyridin-3-yl)-3,4-dihydroquinazolin-2-yl)pyrrolidin-1-yl)-6-methylpyrimidine-5-carbonitrile]",IC50,[1],< 3 nM
same,IC50,PI3K alpha,170 nM
"COc1cncc(-c2cccc3nc([C@@H]4C[C@H](O)CN4c4nc(N)nc(C)c4C#N)n(-c4ccccc4)c(=O)c23)c1 [Example 25, 2-Amino-4-((2S,4S)-4-hydroxy-2-(5-(5-methoxypyridin-3-yl)-4-oxo-3-phenyl-3,4-dihydroquinazolin-2-yl)pyrrolidin-1-yl)-6-methylpyrimidine-5-carbonitrile]",IC50,[1],4 nM
same,IC50,PI3K alpha,48 nM
"Cc1nc(N)nc(N2C[C@@H](O)C[C@H]2c2nc3cccc(-c4cncnc4)c3c(=O)n2-c2ccccc2)c1C#N [Example 26, 2-Amino-4-((2S,4S)-4-hydroxy-2-(4-oxo-3-phenyl-5-(pyrimidin-5-yl)-3,4-dihydroquinazolin-2-yl)pyrrolidin-1-yl)-6-methylpyrimidine-5-carbonitrile]",IC50,[1],7 nM
same,IC50,PI3K alpha,530 nM
"COc1ccc(-c2cccc3nc([C@@H]4C[C@H](O)CN4c4nc(N)nc(C)c4C#N)n(-c4ccccc4)c(=O)c23)cn1 [Example 27, 2-Amino-4-((2S,4S)-4-hydroxy-2-(5-(6-methoxypyridin-3-yl)-4-oxo-3-phenyl-3,4-dihydroquinazolin-2-yl)pyrrolidin-1-yl)-6-methylpyrimidine-5-carbonitrile]",IC50,[1],6 nM
same,IC50,PI3K alpha,86 nM
"Cc1nc(N)nc(N2C[C@@H](O)C[C@H]2c2nc3cccc(-c4cnn(CCO)c4)c3c(=O)n2-c2ccccc2)c1C#N [Example 28, 2-Amino-4-((2S,4S)-4-hydroxy-2-(5-(1-(2-hydroxyethyl)-1H-pyrazol-4-yl)-4-oxo-3-phenyl-3,4-dihydroquinazolin-2-yl)pyrrolidin-1-yl)-6-methylpyrimidine-5-carbonitrile]",IC50,[1],90 nM
same,IC50,PI3K alpha,240 nM
"CCOc1ncc(-c2c(F)ccc3nc([C@@H]4C[C@H](O)CN4c4nc(N)nc(C)c4C#N)n(-c4ccccc4)c(=O)c23)cn1 [Example 29, 2-Amino-4-((2S,4S)-2-(5-(2-ethoxypyrimidin-5-yl)-6-fluoro-4-oxo-3-phenyl-3,4-dihydroquinazolin-2-yl)-4-hydroxypyrrolidin-1-yl)-6-methylpyrimidine-5-carbonitrile]",IC50,[1],6 nM
same,IC50,PI3K alpha,370 nM

# From US9840498B2, “Substituted quinazolin-4-one derivatives” (NOVARTIS AG, priority 2013, dated 2017)
